pIC50: −log10 of the molar value.
Columns and labels:
Format in all cases: biochemical
[1] = molecular target: T1, Jnk3 (Homo sapiens, UniProt P53779); test: AlphaScreen kinase assay, Jnk3; conditions: read-out: IC50, activity toward kinase Jnk3
T1 construct: purchased Upstate Biotechnology

[2] = molecular target: T2, Flt4 (Homo sapiens, UniProt P35916); test: AlphaScreen kinase assay, Flt4; conditions: read-out: IC50, activity toward kinase Flt4
T2 construct: purchased ProQinase GmbH (Freiburg, Germany)
How it was run: (§1)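 AlphaScreen, biotin-peptide substrate; streptavidin donor/anti-phospho acceptor beads; decreased emission = inhibition. Cpds 20 mM DMSO stock, 1:3 x 8 conc.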

[3] = molecular target: T3, Abl (Homo sapiens, UniProt P00519); test: AlphaScreen kinase assay, Abl; conditions: read-out: activity toward kinase Abl, IC50
T3 construct: P1121. pET-SPEC BI-PTP Abl G227-V515-X; His6 (N); made in house; host or cells: E. coli (PTP1B co-expressed)
T3 sequence (P00519 with tags, fused parts or gaps): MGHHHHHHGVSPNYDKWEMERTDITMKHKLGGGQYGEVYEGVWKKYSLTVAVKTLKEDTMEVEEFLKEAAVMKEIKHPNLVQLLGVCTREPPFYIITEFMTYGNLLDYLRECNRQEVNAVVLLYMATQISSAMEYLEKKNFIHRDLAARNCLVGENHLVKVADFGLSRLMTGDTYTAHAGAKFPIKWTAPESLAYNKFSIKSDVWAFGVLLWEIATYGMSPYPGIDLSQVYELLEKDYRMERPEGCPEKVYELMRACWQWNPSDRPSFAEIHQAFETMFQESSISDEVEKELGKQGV
How it was run: as §1

[4] = molecular target: Syk (Homo sapiens, UniProt P43405); test: AlphaScreen kinase assay, Syk; conditions: read-out: IC50, activity toward kinase Syk
Excerpt: AlphaScreen assay was used to screen additional kinases. The assay is similarly dependent on the phosphorylation of a peptide substrate. In this assay, an antibody that recognizes phosphorylated substrate is bound to an acceptor bead. The peptide substrate is attached to biotin, which binds to a donor head that contains streptavidin. Thus phosphorylated substrate is bound by antibody and streptavidin, bringing the donor and acceptor heads into close proximity when kinase is not inhibited. The donor produces singlet oxygen which results in emission from the acceptor when they are in close proximity. Conversely, when kinase is inhibited, the donor and acceptor beads are not associated and the emission from the acceptor is reduced.
AlphaScreen assays were done using compounds dissolved in DMSO to a concentration of 20 mM. The compounds were diluted accordingly to the desired final concentrations in each sample well, using 1:3 serial dilution for a total of 8 concentration points.

[5] = molecular target: T4, B-Raf (Homo sapiens, UniProt P15056); test: AlphaScreen kinase assay, B-Raf; conditions: read-out: IC50, activity toward kinase B-Raf
T4 construct: purchased Upstate Biotechnology
T4 sequence (P15056 whole entry): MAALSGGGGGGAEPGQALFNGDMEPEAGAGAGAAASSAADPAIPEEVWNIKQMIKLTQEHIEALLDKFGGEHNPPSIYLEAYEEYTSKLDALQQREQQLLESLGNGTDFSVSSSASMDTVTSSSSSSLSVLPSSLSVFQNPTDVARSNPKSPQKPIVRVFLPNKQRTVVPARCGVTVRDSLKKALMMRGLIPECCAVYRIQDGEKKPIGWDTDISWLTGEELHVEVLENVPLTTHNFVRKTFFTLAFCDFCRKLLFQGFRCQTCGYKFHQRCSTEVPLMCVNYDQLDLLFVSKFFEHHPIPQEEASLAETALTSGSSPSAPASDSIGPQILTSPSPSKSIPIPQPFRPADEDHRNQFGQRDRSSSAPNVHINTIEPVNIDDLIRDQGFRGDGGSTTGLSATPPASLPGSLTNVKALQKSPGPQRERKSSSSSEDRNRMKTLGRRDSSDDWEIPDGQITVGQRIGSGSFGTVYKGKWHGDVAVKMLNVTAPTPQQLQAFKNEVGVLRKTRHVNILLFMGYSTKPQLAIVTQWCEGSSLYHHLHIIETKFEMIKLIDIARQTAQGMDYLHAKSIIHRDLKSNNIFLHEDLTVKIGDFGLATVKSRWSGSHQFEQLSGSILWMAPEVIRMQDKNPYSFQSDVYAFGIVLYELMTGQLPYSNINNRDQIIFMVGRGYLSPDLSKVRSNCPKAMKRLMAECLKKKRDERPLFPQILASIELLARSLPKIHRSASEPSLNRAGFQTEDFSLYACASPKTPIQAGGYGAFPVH

[6] = molecular target: T5, B-Raf V600E (Homo sapiens, UniProt P15056, V600E); test: AlphaScreen kinase assay, B-Raf V600E; conditions: read-out: IC50, activity toward kinase B-Raf V600E
T5 construct: P4254. pFastBacBD-CDC37 BRAF D437-K722-X, V600E; His6 with pFastBac HT leader (TEV site) (N); made in house; host or cells: Sf9 (baculovirus; chaperone CDC37 co-expressed)
T5 sequence (P15056 with tags, fused parts or gaps V600E): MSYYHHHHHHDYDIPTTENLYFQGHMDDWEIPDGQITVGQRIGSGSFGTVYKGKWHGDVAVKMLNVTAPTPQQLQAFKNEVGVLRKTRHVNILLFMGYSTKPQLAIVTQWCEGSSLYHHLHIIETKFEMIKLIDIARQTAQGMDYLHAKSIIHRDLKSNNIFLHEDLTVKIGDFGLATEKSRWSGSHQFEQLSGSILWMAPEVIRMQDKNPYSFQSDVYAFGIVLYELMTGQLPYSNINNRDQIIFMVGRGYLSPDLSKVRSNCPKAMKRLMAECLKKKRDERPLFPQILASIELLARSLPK

[7] = molecular target: T6, Jnk1 (Homo sapiens, UniProt P45983); test: AlphaScreen kinase assay, Jnk1; conditions: read-out: IC50, activity toward kinase Jnk1
T6 construct: purchased Upstate Biotechnology
T6 sequence (P45983 whole entry): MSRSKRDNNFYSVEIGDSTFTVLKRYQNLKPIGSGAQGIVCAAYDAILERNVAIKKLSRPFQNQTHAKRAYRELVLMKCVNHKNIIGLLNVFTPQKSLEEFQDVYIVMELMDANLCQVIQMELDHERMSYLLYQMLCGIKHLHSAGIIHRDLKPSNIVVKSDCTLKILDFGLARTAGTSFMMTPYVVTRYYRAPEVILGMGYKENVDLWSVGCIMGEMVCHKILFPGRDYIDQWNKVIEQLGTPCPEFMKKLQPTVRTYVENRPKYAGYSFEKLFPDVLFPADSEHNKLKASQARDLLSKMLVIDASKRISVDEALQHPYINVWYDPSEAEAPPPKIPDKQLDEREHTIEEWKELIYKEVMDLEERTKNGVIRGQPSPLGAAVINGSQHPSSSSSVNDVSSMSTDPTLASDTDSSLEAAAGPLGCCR

[8] = molecular target: T7, Jnk2 (Homo sapiens, UniProt P45984); test: AlphaScreen kinase assay, Jnk2; conditions: read-out: IC50, activity toward kinase Jnk2
T7 construct: purchased Roche Protein Expression Group (Indianapolis, IN)
T7 sequence (P45984 whole entry): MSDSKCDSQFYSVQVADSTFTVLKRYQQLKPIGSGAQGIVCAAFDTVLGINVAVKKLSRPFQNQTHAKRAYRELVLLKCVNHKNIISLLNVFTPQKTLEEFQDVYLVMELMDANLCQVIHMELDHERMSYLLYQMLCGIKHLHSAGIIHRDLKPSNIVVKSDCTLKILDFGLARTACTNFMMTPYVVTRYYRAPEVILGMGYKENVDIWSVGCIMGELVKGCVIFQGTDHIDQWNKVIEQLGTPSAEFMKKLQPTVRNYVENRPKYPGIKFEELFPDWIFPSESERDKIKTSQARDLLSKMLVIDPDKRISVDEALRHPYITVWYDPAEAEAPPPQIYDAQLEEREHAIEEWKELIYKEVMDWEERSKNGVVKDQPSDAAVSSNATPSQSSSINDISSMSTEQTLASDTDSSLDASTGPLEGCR
How it was run: as §1

[9] = molecular target: T8, Ret (Homo sapiens, UniProt P07949); test: AlphaScreen kinase assay, Ret; conditions: read-out: IC50, activity toward kinase Ret
T8 construct: P1378.pET-SF BI-PTP RET H661-R1012 HIS; made in house
T8 sequence (P07949 with tags, fused parts or gaps): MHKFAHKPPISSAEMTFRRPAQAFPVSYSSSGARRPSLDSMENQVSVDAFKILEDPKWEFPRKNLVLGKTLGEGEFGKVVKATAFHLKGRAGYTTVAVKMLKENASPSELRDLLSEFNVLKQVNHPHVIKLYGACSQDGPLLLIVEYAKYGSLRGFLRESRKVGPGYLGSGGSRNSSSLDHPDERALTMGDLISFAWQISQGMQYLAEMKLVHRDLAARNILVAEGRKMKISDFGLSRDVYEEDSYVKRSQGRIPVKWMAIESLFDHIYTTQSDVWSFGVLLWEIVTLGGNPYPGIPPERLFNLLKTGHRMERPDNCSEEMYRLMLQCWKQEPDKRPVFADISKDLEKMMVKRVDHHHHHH

[10] = molecular target: T9, Kit (Homo sapiens, UniProt P10721); test: AlphaScreen kinase assay, Kit; conditions: read-out: IC50, activity toward kinase Kit
T9 construct: P1332.N6 BI PTP KIT M552-K948-X COD; His6 (N); made in house; host or cells: E. coli (PTP1B co-expressed)
T9 sequence (P10721 with tags, fused parts or gaps): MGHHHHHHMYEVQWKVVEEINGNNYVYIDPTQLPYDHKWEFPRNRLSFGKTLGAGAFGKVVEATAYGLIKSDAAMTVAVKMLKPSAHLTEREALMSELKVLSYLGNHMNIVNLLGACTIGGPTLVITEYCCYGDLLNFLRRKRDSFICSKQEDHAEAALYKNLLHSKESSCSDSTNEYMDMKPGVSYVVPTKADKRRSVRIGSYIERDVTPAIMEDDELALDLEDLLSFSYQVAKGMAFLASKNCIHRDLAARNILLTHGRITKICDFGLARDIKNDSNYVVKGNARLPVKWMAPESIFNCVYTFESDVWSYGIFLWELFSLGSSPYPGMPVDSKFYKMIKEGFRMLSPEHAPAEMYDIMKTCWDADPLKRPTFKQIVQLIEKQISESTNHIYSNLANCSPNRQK

[11] = molecular target: T10, FGFR1 (Homo sapiens, UniProt P11362, C488A/C584S); test: AlphaScreen kinase assay, FGFR1; conditions: read-out: IC50, activity toward kinase FGFR
T10 construct: P1351.pET N6 BI-PTP FGFR A458-E765-X C488A, C584S; made in house; host or cells: E. coli (PTP1B co-expressed)
T10 sequence (P11362 458-765 C488A/C584S): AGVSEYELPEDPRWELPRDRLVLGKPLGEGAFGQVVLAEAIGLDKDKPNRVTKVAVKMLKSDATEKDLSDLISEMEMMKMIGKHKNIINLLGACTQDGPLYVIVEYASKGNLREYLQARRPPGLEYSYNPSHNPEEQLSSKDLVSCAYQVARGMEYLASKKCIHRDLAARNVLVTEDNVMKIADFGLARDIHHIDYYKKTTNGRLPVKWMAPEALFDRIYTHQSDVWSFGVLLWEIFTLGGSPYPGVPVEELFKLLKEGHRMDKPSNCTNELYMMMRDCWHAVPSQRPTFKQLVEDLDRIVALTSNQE

[12] = molecular target: T11, Src (Homo sapiens, UniProt P12931); test: AlphaScreen kinase assay, Src; conditions: read-out: IC50, activity toward kinase Src
T11 construct: P1144. pET-N6 BI-PTP SRC V86-L536-X; made in house
T11 sequence (P12931 with tags, fused parts or gaps): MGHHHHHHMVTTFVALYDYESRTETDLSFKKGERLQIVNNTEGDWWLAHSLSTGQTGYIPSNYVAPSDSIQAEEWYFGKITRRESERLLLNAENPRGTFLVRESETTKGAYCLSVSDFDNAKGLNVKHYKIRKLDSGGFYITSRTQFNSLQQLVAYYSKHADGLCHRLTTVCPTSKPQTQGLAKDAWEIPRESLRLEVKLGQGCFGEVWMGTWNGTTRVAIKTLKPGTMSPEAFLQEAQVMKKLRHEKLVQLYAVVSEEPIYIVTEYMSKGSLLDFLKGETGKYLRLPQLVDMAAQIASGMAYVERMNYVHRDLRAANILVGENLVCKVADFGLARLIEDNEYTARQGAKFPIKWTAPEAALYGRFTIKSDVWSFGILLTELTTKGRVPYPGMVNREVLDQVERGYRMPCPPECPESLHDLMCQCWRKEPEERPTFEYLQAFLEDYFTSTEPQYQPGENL

[13] = molecular target: T12, Stk6 (Homo sapiens, UniProt O14965); test: Z'-Lyte FRET kinase assay (Invitrogen), Stk6; conditions: read-out: IC50, activity toward kinase Stk6
T12 construct: purchased Invitrogen (Carlsbad, Calif.), screening service
T12 sequence (O14965 1-403): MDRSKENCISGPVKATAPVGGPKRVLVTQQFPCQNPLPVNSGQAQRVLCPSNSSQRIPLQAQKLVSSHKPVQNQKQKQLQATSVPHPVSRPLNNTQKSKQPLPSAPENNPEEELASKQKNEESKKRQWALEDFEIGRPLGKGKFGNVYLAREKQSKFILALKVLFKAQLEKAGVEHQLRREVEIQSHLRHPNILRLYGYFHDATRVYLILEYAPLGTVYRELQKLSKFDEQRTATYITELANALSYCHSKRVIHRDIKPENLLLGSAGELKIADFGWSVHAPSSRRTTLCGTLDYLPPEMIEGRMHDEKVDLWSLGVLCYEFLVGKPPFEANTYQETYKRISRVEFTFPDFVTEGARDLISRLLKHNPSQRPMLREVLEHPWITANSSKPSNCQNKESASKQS

[14] = molecular target: T13, Fak (Homo sapiens, UniProt Q05397); test: AlphaScreen kinase assay, Fak; conditions: read-out: IC50, activity toward kinase Fak
T13 construct: P1358.pFastBacHtb FAK S411-Q686-X; His6 with pFastBacHTb leader (TEV site) (N); made in house; host or cells: Sf9 (baculovirus)

[15] = molecular target: T14, Btk (Homo sapiens, UniProt Q06187); test: Z'-Lyte FRET kinase assay (Invitrogen), Btk; conditions: read-out: IC50, activity toward kinase Btk
T14 construct: purchased Invitrogen (assay run by Invitrogen)

[16] = molecular target: T15, Kdr (Homo sapiens, UniProt P35968); test: Z'-Lyte FRET kinase assay (Invitrogen), Kdr; conditions: read-out: IC50, activity toward kinase Kdr
T15 construct: purchased Invitrogen (assay run by Invitrogen)
T15 sequence (P35968 20-1356): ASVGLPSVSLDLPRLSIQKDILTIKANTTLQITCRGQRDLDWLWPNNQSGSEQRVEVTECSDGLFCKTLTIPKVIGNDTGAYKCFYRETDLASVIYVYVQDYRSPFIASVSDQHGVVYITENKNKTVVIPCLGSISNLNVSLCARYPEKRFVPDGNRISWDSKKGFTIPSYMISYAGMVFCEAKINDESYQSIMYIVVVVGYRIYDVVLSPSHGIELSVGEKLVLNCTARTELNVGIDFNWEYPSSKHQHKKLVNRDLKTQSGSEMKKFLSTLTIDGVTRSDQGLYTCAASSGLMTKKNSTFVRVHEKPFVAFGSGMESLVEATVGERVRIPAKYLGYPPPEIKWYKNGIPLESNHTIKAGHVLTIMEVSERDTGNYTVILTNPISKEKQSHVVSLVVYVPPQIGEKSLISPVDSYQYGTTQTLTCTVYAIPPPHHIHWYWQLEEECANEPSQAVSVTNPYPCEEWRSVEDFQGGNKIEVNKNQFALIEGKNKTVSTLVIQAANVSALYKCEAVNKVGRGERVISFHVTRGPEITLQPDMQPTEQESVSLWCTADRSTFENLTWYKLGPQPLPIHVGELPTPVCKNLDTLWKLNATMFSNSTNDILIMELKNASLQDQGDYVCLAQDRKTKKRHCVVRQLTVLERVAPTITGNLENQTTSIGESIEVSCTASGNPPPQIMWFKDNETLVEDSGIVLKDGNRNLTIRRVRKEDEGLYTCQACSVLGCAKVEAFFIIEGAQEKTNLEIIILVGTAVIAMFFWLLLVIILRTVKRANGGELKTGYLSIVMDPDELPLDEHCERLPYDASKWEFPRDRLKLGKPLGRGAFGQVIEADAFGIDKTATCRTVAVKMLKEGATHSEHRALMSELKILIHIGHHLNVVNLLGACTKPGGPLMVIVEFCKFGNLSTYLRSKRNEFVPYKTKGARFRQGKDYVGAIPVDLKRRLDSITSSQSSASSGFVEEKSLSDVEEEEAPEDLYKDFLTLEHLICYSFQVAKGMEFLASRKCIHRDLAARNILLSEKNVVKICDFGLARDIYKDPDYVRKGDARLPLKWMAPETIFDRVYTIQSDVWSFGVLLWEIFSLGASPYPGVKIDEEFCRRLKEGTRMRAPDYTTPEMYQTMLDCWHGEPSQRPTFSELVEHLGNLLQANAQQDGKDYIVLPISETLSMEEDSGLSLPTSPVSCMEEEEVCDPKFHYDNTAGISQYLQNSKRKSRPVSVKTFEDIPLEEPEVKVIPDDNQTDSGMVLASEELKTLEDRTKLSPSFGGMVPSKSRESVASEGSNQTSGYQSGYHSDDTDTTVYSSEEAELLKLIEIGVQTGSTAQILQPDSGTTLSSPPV

[17] = molecular target: T16, Met (Homo sapiens, UniProt P08581); test: AlphaScreen kinase assay, Met; conditions: read-out: IC50, activity toward kinase Met
T16 construct: P1818.pETN6 BI-PTP MET G1056-G1364-X WT; His6 (N); made in house; host or cells: E. coli (PTP1B co-expressed)
How it was run: as §1

[18] = molecular target: T17, Fms (Homo sapiens, UniProt P07333); test: AlphaScreen kinase assay, Fms; conditions: read-out: IC50, activity toward kinase Fms
T17 construct: purchased Upstate Biotechnology

[19] = molecular target: T18, Flt1 (Homo sapiens, UniProt P17948); test: AlphaScreen kinase assay, Flt1; conditions: read-out: IC50, activity toward kinase Flt1
T18 construct: P1826.pETN6 BI-PTP FLT1 M799-D1165-X WT; His6 (N); made in house; host or cells: E. coli (PTP1B co-expressed)
T18 sequence (P17948 with tags, fused parts or gaps): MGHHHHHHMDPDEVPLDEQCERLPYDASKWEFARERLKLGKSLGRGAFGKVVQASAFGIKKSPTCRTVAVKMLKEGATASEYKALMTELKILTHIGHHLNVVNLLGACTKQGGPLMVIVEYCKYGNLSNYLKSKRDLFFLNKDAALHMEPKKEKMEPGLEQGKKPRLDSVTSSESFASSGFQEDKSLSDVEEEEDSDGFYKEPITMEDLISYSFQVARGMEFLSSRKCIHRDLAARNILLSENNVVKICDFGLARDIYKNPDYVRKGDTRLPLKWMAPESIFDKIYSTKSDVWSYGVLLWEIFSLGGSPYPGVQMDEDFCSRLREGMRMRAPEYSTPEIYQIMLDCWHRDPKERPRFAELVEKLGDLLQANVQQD

[20] = molecular target: T19, MAPKAPK2 (Homo sapiens, UniProt P49137); test: Z'-Lyte FRET kinase assay (Invitrogen), MAPKAPK2; conditions: read-out: IC50, activity toward kinase MAPKAPK2
T19 construct: purchased Invitrogen (assay run by Invitrogen)
Excerpt: The effect of potential modulators of kinase activity can be measured in a variety of different assays known in the art. For example, direct radiometric, indirect FRET or AlphaScreen assays may be used to assess the level of phosphorylation of a substrate in the presence of test compounds in order to determine the inhibitory affect of the compound on the kinase. Invitrogen (Carlsbad, Calif.) uses a FRET based assay for Btk, EGFR, EphB2, Flt3, lrak4, Kdr, MAP2K1, MAPKAPK2, PDGFRB, PKC theta, Stk6 and Yes. For these assays, compounds of the invention were screened by Invitrogen using Z′-Lyte™ kinase assay.
Briefly, the Invitrogen kinase assay involves use of a specific peptide substrate optimized for each kinase, containing a fluorophore at each end that make up the FRET pair. The peptide sensitivity to proteolytic cleavage depends on phosphorylation of the peptide. Non-phosphorylated peptide is cleaved by a protease while peptide phosphorylated by the kinase is not cleaved. Cleavage of the peptide disrupts the FRET between the donor (coumarin) and acceptor (fluorescein) fluorophores, resulting in an increase in the ratio of donor emission to acceptor emission. The emission ratio of coumarin to fluorescein is used to assess the reaction progress. The extent of phosphorylation is determined from the emission ratio, which is low when the kinase is active (phosphorylated peptide is not cleaved, FRET pair connected) or higher for inhibited kinase (non-phosphorylated peptide is cleaved, FRET pair separated). Thus, the assay involves a kinase reaction in the presence of varying concentrations of a given compound, a development reaction with site specific protease, and detection of the fluorescent emission ratio of coumarin and fluorscein. […] Reaction conditions for each kinase are determined to provide optimal reaction times, incubation temperature, kinase and ATP concentrations. Test samples are made up in 1× kinase buffer (50 mM HEPES pH 7.5, 50 mM MgCl2, 5 mM EGTA, 0.05% BRIJ-35) and compound at desired concentration prepared in DMSO such that the final DMSO is 1%. […] Typically, assay plates are prepared to 10 μl final volume per sample, adding 2.5 μl of compound at 4× the desired concentration in 4% DMSO (serial dilution of compound provides concentration curve), 5 μl of the desired kinase mixed with Z′-LYTE™ peptide substrate (2× in 2× kinase buffer, final peptide at 2 μM), and 2.5 μl of 4×ATP solution. All kinase except for MAP2K1 were at 10 μM ATP in the kinase reaction, while MAP2K1 was at 100 μM. Samples are mixed and the kinase reaction is incubated 1 hour at room temperature, after which 5 μl of development solution is added and mixed. After incubation for another 1 hour at room temperature, 5 μl of stop reagent is added to each sample and mixed. The fluorescence signals are measured to determine the emission ratio.

[21] = molecular target: Gsk3β (Homo sapiens, UniProt P49841); test: AlphaScreen kinase assay, Gsk3β; conditions: read-out: IC50, activity toward kinase Gsk3β
How it was run: as §1

T1 sequence (P53779 whole entry): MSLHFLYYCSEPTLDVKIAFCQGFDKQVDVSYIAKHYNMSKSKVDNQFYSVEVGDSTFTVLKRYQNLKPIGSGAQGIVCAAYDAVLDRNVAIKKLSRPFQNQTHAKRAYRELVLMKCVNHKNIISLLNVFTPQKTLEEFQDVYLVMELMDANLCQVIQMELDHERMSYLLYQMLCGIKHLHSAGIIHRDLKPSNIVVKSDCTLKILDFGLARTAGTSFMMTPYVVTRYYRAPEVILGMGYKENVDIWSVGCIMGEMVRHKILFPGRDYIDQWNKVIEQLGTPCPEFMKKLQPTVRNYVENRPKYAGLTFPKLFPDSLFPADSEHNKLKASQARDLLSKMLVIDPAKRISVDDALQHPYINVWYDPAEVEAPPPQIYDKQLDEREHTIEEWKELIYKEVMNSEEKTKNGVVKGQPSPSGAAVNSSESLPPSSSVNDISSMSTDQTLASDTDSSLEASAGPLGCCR

pIC50 [1]	pIC50 [3]	pIC50 [4]	pIC50 [5]	pIC50 [6]	pIC50 [7]	pIC50 [8]	pIC50 [9]	pIC50 [10]	pIC50 [11]	pIC50 [16]	Compound	also measured
≥ 5.00	≥ 5.00	≥ 5.00	≥ 5.00	≥ 5.00	≥ 5.00	≥ 5.00	≥ 5.00	≥ 5.00	≥ 5.00	–	Cc1ccccc1C(=O)c1c[nH]c2ncc(-c3cccc(N)c3)cc12 [Compound P-0599]	pIC50 [2]: ≥ 5.00; pIC50 [12]: ≥ 5.00
≥ 5.00	≥ 5.00	≥ 5.00	≥ 5.00	≥ 5.00	≥ 5.00	≥ 5.00	≥ 5.00	≥ 5.00	≥ 5.00	≥ 5.00	COc1cccc(C(=O)c2c[nH]c3ncc(-c4cccc(/C=C/C(=O)O)c4)cc23)c1 [Compound P-0054]	pIC50 [13]: ≥ 5.00; pIC50 [14]: ≥ 5.00; pIC50 [15]: ≥ 5.00; pIC50 [17]: ≥ 5.00; pIC50 [18]: ≥ 5.00; pIC50 [19]: ≥ 5.00
–	–	–	–	–	–	–	–	–	–	≥ 5.00	FC(F)(F)c1cccc(-c2ccnc3[nH]cc(Sc4ccncc4)c23)c1 [Compound P-0226]	pIC50 [20]: ≥ 5.00; pIC50 [21]: ≥ 5.00

— patent publication US8415469B2, “Compounds and methods for kinase modulation, and indications therefor” (Plexxikon Inc., priority 2005, dated 2013)
